Experimental data: patent publication US7820379B2, “Process for high throughput screening of CpG-based immuno-agonist/antagonist” (Coley Pharmaceutical GmbH, priority 2000, dated 2010)

What was measured:
Assay type in all cases: cell-based
[1] = tested on: Human peripheral blood mononuclear cells (PBMC); assay: IL-12 production in human PBMC; conditions: ODN titration, after 8 hours
Source text: By iterative examination of the flanking sequences surrounding CG dinucleotides, CpG-motifs have been identified. Paradoxically, or by twist of nature, the human optimal CpG-motif, GTCGTT (SEQ ID NO:66), is different from the murine motif, GACGTT (SEQ ID NO:129). Human peripheral blood mononuclear cells (PBMC) (FIG. 10A) and murine splenocytes (FIG. 10B) were stimulated with ODN 2006 (filled circle, […], SEQ ID NO:112), ODN 2006-GC (open circle), ODN 1668 (filled triangle, […], SEQ ID NO:84) or ODN 1668-GC (open triangle, […], SEQ ID NO:85) at indicated concentrations and IL-12 production was monitored after 8 hours. […] It should also be noted that the Kac (concentration of half-maximal activation) of murine splenocytes for 1668 was greater than human PBMC for 2006 (compare FIG. 10A to FIG. 10B).

hTLR7 = molecular target: T1, hTLR7 (Homo sapiens, UniProt Q9NYK1); assay: IL-8 production in 293 cells transiently transfected with hTLR7; conditions: 293 cells transfected with hTLR7; ODN 2 μM, LPS 100 ng/ml
T1 construct: codes for a protein of 1049 amino acids; expressed in transfected cells; host or cells: human 293 fibroblasts (ATCC CRL-1573), transient
T1 sequence (Q9NYK1 27-1049): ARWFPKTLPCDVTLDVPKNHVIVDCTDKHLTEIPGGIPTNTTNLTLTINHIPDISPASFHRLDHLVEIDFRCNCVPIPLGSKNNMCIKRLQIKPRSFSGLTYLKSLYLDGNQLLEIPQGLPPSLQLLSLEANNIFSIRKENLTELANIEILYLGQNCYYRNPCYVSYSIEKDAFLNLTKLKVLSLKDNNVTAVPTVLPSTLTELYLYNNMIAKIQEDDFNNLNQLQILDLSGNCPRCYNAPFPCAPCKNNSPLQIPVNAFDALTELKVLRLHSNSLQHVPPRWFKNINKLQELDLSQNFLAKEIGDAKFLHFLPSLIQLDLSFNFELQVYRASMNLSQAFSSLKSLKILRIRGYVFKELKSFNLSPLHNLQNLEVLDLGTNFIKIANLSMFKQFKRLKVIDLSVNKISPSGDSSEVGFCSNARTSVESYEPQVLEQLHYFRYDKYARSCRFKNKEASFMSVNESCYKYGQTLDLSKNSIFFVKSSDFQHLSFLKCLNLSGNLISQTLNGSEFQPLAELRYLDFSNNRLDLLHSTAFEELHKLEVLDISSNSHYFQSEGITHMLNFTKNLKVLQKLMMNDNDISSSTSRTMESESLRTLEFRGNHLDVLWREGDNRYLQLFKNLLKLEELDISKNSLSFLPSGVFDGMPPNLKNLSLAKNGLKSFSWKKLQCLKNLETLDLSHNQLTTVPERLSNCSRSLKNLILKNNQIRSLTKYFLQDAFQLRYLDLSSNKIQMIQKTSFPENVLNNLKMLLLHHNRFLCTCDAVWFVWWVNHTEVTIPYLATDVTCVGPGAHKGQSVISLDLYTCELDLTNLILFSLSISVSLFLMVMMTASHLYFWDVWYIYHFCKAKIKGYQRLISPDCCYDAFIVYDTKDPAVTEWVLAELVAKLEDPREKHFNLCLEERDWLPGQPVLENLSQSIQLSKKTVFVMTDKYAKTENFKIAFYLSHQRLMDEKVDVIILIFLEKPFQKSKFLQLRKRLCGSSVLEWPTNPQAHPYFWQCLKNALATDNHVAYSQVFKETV
Method: (§1) The cloned human TLR7 and human TLR8 cDNA (our result) were cloned into the expression vector pcDNA3.1 (−) from Invitrogen using the NotI site. Utilizing a “gain of function” assay, hTLR7 and hTLR8 expression vectors were transiently expressed in human 293 fibroblasts (ATCC, CRL-1573) using the calcium phosphate method. Activation was monitored by IL-8 production after stimulus with CpG-ODN (2006 or 1668, 2 μM) or LPS (100 ng/ml).

hTLR8 = molecular target: T2, hTLR8 (Homo sapiens, UniProt Q9NR97); assay: IL-8 production in 293 cells transiently transfected with hTLR8; conditions: 293 cells transfected with hTLR8; ODN 2 μM, LPS 100 ng/ml
T2 construct: codes for a protein of 1041 amino acids; expressed in transfected cells; host or cells: human 293 fibroblasts (ATCC CRL-1573), transient
T2 sequence (Q9NR97 27-1041): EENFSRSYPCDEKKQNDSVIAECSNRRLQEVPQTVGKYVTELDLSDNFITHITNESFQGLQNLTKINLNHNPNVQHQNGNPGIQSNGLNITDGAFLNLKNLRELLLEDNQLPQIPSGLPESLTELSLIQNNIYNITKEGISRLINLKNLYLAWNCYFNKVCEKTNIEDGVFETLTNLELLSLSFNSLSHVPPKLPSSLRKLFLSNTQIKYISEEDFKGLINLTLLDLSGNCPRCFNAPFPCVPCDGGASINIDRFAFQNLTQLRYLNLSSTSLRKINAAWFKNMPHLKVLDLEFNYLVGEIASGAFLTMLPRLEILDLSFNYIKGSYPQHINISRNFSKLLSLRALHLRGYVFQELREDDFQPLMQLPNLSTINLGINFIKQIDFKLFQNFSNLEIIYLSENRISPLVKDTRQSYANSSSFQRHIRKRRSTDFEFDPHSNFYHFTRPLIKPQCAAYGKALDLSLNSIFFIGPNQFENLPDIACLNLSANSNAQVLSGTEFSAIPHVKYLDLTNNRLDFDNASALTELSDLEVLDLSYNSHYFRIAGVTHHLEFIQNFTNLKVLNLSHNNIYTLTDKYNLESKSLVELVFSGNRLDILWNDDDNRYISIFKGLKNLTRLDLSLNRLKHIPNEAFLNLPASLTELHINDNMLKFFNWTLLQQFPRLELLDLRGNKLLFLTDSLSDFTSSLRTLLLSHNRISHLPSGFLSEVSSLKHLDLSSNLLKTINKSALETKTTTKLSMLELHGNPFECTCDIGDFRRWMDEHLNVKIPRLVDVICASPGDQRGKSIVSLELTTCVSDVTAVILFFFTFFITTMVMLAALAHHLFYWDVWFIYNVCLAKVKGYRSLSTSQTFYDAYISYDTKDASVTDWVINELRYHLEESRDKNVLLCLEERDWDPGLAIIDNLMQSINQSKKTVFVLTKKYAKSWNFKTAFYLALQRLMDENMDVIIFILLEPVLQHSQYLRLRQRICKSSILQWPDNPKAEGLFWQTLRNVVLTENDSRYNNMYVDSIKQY
Method: as §1

Substance	IL-12 production [1]	activation monitored by IL-8 production (hTLR7)	activation monitored by IL-8 production (hTLR8)
TCCATGAGCTTCCTGATGCT (listed as DNA, chemistry not fully specified) [ODN 1668-GC]	essentially negative		
TCGTCGTTTTGTCGTTTTGTCGTT [ODN 2006]	induces IL-12 production	None of the stimuli used activated	None of the stimuli used activated
TGCTGCTTTTGTGCTTTTGTGCTT (listed as DNA, chemistry not fully specified) [ODN 2006-GC]	essentially negative		
lipopolysaccharide [LPS]		None of the stimuli used activated	None of the stimuli used activated
TCCATGACGTTCCTGATGCT (listed as DNA, chemistry not fully specified) [ODN 1668]	much less effective	None of the stimuli used activated	None of the stimuli used activated
